In ChEMBL document CHEMBL1201862, “PubChem BioAssay data set” (2004):
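These data come from cells grown in 96-well plates and exposed to compound for 48 hours at five concentrations. At the GI50, growth is halved.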 Calls of active or inactive are those of the source. No stated cut-off is given here; in the data, active = GI50 up to about 1.1 µM and inactive = higher.

What was measured:
Assay in all cases: DTP human tumour cell line panel, 48 h
OVCAR-4 = test system: OVCAR-4
MDA-MB-231 = test system: MDA-MB-231
M19-MEL = test system: M19-MEL
SF-539 = test system: SF-539
UACC-62 = test system: UACC-62
RPMI-8226 = test system: RPMI-8226
SR = test system: SR
NCI-H226 = test system: NCI-H226
COLO 205 = test system: COLO 205
Malme-3M = test system: Malme-3M
M14 = test system: M14
SK-MEL-5 = test system: SK-MEL-5
HT-29 = test system: HT-29
DU-145 = test system: DU-145
UO-31 = test system: UO-31
HOP-62 = test system: HOP-62
OVCAR-8 = test system: OVCAR-8
786-0 = test system: 786-0
HCT-15 = test system: HCT-15
TK-10 = test system: TK-10

Measured: GI50

CC(C)Cc1ccc(C(C)/C=C2\CCC(CN3CCCCC3)C2=O)cc1 (stereo not given)
active: RPMI-8226 0.611 µM
inactive: OVCAR-4 3.78 µM | MDA-MB-231 4.89 µM | M19-MEL 2.54 µM | SF-539 4.54 µM | UACC-62 10.5 µM | SR 1.65 µM | NCI-H226 14.7 µM | COLO 205 5.81 µM | Malme-3M 16.6 µM | M14 6.1 µM | SK-MEL-5 13.5 µM | HT-29 5.12 µM | DU-145 16.2 µM | UO-31 10.6 µM | HOP-62 8.69 µM | OVCAR-8 5.18 µM | 786-0 1.85 µM | TK-10 3.27 µM
2.75 µM: HCT-15
